Data set [1] concerns pancreatic cancer cells PANC-1 (ATCC CRL-1469). As to the kind of experiment: SRB (Sulforhodamine B) assay in PANC-1 cells. It is filed as cell-based. Particulars: Homo sapiens, read-out: IC50 (PANC-1). Here is the method: (§1) FIGS. 1A-1B show the IC50 curves of the twelve investigational β-lactams in pancreatic cancer cells PANC-1 (ATCC CRL-1469) and normal pancreatic ductal epithelial cells (ATCC CRL-4038). The GraphPad Prism software was used to process the results. The IC50 values were determined by SRB (Sulforhodamine B) assay following standard procedure. PANC-1 cells were plated in 96 well plates and treated with 1, 10, 100, 1000 and 10,000 nM of each of the drugs in triplicate for 72 hrs. Cells were fixed, washed and stained with SRB dye, the stained cells were washed, and the dye solubilized. It was read using a plate reader at 565 nm. The IC50 values were calculated assuming that the 10 μM sample has reached saturation. Following similar way, IC50 values were determined for normal pancreatic ductal epithelial cells.
(§2) As mentioned earlier, PANC-1 is referred to generically as the “gold standard of pancreatic cancers” representing as it does almost total resistance to GEM, the first line treatment currently used in clinical situations. Pancreatic cancer cells PANC-1 (ATCC CRL-1469) and normal pancreatic ductal epithelial cells (ATCC CRL-4038) were used in this study. The GraphPad Prism software was used to process the results. […] Cells were fixed, washed and stained with SRB dye, the stained cells were washed, and the dye solubilized. It was read using a plate reader at 565 nm. The IC50 values were calculated assuming that the 10 μM sample has reached saturation. Following similar way, IC50 values were determined for normal pancreatic ductal epithelial cells.

Data set [2] relates to normal pancreatic ductal epithelial cells (ATCC CRL-4038). As to the kind of experiment: SRB (Sulforhodamine B) assay in normal pancreatic ductal epithelial cells. It is filed as cell-based. Particulars: Epithelial cell, read-out: IC50 (NPC). Here is the method:
as §1, §2

The subject of another data set is PANC-1 tumorspheres. As to the kind of experiment: 3D-tumorsphere formation assay. It is filed as cell-based, human. Particulars: for IC50: Homo sapiens, tumorspheres larger than 100 micrometers counted after 144 hrs. On the procedure:
Number of tumorspheres formed can be used to distinguish the efficacy of different anticancer drugs in a more physically acceptable method than 2D culture. Based on selectivity and toxicity towards PANC-1 cells in comparison to normal pancreatic ductal epithelial cells (Table D), six compounds (A, B, C, E, F, and G) were chosen for the 3D-tumorsphere formation assay. The assay was carried out by following the protocol developed by Johnson et al., (2013). PANC-1 cells (5000) were plated as single cells in Corning ultra-low attachment 24 well plates in 0.5 ml DMEM+10% FBS. The cells were grown in a humidified atmosphere of 5% CO2 for 168 hrs. 0.1 ml Media was added on 72nd and 144 hrs. The β-lactams were dissolved in DMSO and maintained at −20° C. On the day of assay, on the addition of media, the drugs were freshly diluted in media. The final concentrations of drugs were 0, 1 nM, 10 nM, 100 nM, 1 uM, 10 μM. After 144 hours the total number tumorspheres that were larger than 100 micrometers were counted in a field of 1 mm×1 mm at 10× magnification in a bright field microscope. The data was plotted and the IC50 value was calculated.
3D-tumorsphere formation assay is considered to be a fast and economical intermediary step between in vitro and in vivo biological evaluations. A tumorsphere is a solid, spherical formation developed from the proliferation of a single cancer stem/progenitor cell in 3D culture. These cells are easily distinguishable from single or aggregated as they appear to become fused together and individual cells cannot be appearing to become fused together and individual cells cannot be identified. The size can vary from less than 50 micrometers to 250 micrometers. The number of tumorspheres formed can be used to characterize the cancer stem cell population within different in vitro cultured cancer cell lines. The number of tumorspheres formed can also be used to distinguish the efficacy of different anticancer drugs in a more physically acceptable method than 2D culture. Based on selectivity and toxicity towards PANC-1 cells in comparison to normal pancreatic ductal epithelial cells (Table D), six compounds (A, B, C, E, F, and G) were chosen for the 3D-tumorsphere formation assay. The assay was carried out by following the protocol developed by Johnson et al., (2013). […] The below steps were followed to accomplish the assay. • 5000 PANC-1 cells were plated as single cells in Corning ultra-low attachment 24 well plates in 0.5 ml DMEM+10% FBS. • Cells were grown in a humidified atmosphere of 5% CO2 for 168 hrs. 0.1 ml Media was added on 72nd and 144 hrs. • Drugs were dissolved in DMSO and maintained at −20° C. On the day of assay, on the addition of media, the drugs were freshly diluted in media. • The final concentrations of drugs were 0, 1 nM, 10 nM, 100 nM, 1 μM, 10 μM. • After 144 hrs the total number tunorspheres that were larger than 100 micrometers were counted in a field of 1 mm×1 mm at 10× magnification in a bright field microscope. The data was plotted and the IC50 value was calculated.

The next data set has as its system HPAF-II. As to the kind of experiment: Cytotoxicity IC50 in HPAF-II cells. It is filed as cell-based. The settings on record: Homo sapiens; HPAF-II cell line; read-out: IC50 (mean ± standard error). An excerpt: (§3) B. Cytotoxicity Studies: Determination of IC50 Values (Single Run) in Capan-2, HPAC. HPAF-II, and HS766T Cell Lines
(§4) Capan-2, HPAC. HPAF-H, and HS766T. The compounds A, D, E, G, and H were chosen randomly, out of twelve β-laclam molecules, to carry out this evaluation.

The subject of a further data set is HS 766T. As to the kind of experiment: Cytotoxicity IC50 in HS 766T cells. It is filed as cell-based. Particulars: Homo sapiens, Hs766T; HS 766T cell line; read-out: IC50 (mean ± standard error).
Source text: as §3, §4

Another data set relates to PANC-1 cells. As to the kind of experiment: Flow cytometric cell cycle analysis. It is filed as cell-based, human. The settings on record: tested for 24, 48 and 72 hrs. Here is the method:
The noise was cleared. […] After 72 hrs all the cells (including floaters) were collected, the adhered cells were trypsinized and collected as well. The cells were then centrifuged in a 50 mL centrifuge tube. The pellet was washed with PBS and reconstituted in 500 μL PBS. The cells were then fixed in ice cold ethanol by adding the ethanol dropwise while gently vortexing the cells. Stored at 4° C. for overnight. The cells were then centrifuged, and the pellet reconstituted in Guava cell cycle reagent and analyzed in a Guava flow cytometer. A similar experiment was conducted with normal pancreatic ductal epithelial cells (NPC) and the drug treatment was done according to the IC50 values observed in the 2D assay conducted on them (Table E). Please note that 2N represents G0/G1 and 4N for G2 phases.
After 72 hrs all the cells (including floaters) were collected, the adhered cells were trypsinized and collected as well. The cells were then centrifuged in a 50 mL centrifuge tube. The pellet was washed with PBS and reconstituted in 500 μL PBS. The cells were then fixed in ice cold ethanol by adding the ethanol dropwise while gently vortexing the cells. […] The cells were then centrifuged, and the pellet reconstituted in Guava cell cycle reagent and analyzed in a Guava flowcytometer. […] First set of data with PANC-1 cells were analyzed by using FlowJo software, the noise was cleared (FIG. 3). […]
A general note: A flow cytometer gives signals particle by particle.

Where [3] appears, read: PANC-1, 2D-culture, SRB, 72 hrs, average of 3 runs.
Setting [4] is: 2D-culture, SRB, average of 3 runs.

Like-named read-outs stand apart in the source and are kept apart here.

In general, melting point refers to the temperature of the solid-liquid transition. The compound `Cc1ccc(S(=O)(=O)O[C@@H]2C(=O)N(c3cc4c5ccccc5ccc4c4ccccc34)[C@H]2c2ccc(F)cn2)cc1` (racemic) [(±)-Trans-N-(chrysen-6-yl)-2-(5-fluoropyridin-2-yl)-4-oxoazetidin-3-yl 4-methylbenzenesulfonate] returned a melting point of 220 to 221 °C.

For `CS(=O)(=O)O[C@@H]1C(=O)N(c2cc3c4ccccc4ccc3c3ccccc23)[C@H]1c1ccc(F)cn1` (racemic) [(±)-Trans-N-(chrysen-6-yl)-2-(5-fluoropyridin-2-yl)-4-oxoazetidin-3-yl methanesulfonate], the melting point lay in the range of 253 to 254 °C.

In general, IC50 refers to the concentration at which inhibition is half-maximal. For `N#CC1CN(S(=O)(=O)O[C@@H]2C(=O)N(c3cc4c5ccccc5ccc4c4ccccc34)[C@H]2c2ccc(F)cn2)C1` (racemic) [Compound C, (±)-Trans-N-(chrysen-6-yl)-2-(5-fluoropyridin-2-yl)-4-oxoazetidin-3-yl 3-cyanoazetidine-1-sulfonate], the melting point was in the range of 212 to 213 °C. In data set [1] (setting [3]), the IC50 stood at 3.52 nM. In addition, the IC50 in data set [2] (setting [4]) was 42.5 nM. Besides, in the data set with PANC-1 tumorspheres, the “activity in 3D-tumorsphere formation assay compared with 2D-culture” value (from here on “activity … compared with 2D-culture”) is reported as “higher activity in 3D-tumorphere formation assay than 2D-culture” and the concentration for half-maximal inhibition (IC50) was found to be 2.33 nM.

As for `O=C1[C@@H](OS(=O)(=O)N2CCCC2)[C@H](c2ccc(F)cn2)N1c1cc2c3ccccc3ccc2c2ccccc12` (racemic) [Compound I, (±)-Trans-N-(chrysen-6-yl)-2-(5-fluoropyridin-2-yl)-4-oxoazetidin-3-yl pyrrolidine-1-sulfonate], the melting point was in the range of 205 to 206 °C. Moreover, the IC50 in data set [1] (setting [3]) amounted to 58.6 nM. Further, the IC50 in data set [2] (setting [4]) came out at 201 nM.

In turn, `CC(C)N(C)S(=O)(=O)O[C@@H]1C(=O)N(c2cc3c4ccccc4ccc3c3ccccc23)[C@H]1c1ccc(F)cn1` (racemic) [E, (±)-Trans-N-(chrysen-6-yl)-2-(5-fluoropyridin-2-yl)-4-oxoazetidin-3-yl isopropyl(methyl)sulfamate] gave a melting point of 166 to 167 °C. The IC50 in the data set with HPAF-II is 500 ± 160 nM. Further, the 50% inhibitory concentration (IC50) in the data set with HS 766T worked out at 40 nM. In data set [1] (setting [3]), the IC50 was 8.65 nM. Moreover, the IC50 in data set [2] (setting [4]) came out at 424 nM. Also, in the data set with PANC-1 tumorspheres, the “activity … compared with 2D-culture” value is recorded as “higher activity in 3D-tumorphere formation assay than 2D-culture” and the IC50 is 6.25 nM.

For the compound `O=C1[C@@H](OS(=O)(=O)C2CC2)[C@H](c2ccc(F)cn2)N1c1cc2c3ccccc3ccc2c2ccccc12` (racemic) [F, (±)-Trans-N-(chrysen-6-yl)-2-(5-fluoropyridin-2-yl)-4-oxoazetidin-3-yl cyclopropanesulfonate], the melting point lay in the range of 180 to 181 °C. Further, the IC50 in data set [1] (setting [3]) was 27.2 nM. Besides, in data set [2] (setting [4]), the IC50 was 356 nM. Besides, in the data set on PANC-1 tumorspheres, the “activity … compared with 2D-culture” value is given as “higher activity in 3D-tumorphere formation assay than 2D-culture” and the half-inhibitory concentration (IC50) was found to be 19.1 nM.

For the compound `CN1CCN(S(=O)(=O)O[C@@H]2C(=O)N(c3cc4c5ccccc5ccc4c4ccccc34)[C@H]2c2ccc(F)cn2)CC1` (racemic) [G, (±)-Trans-N-(chrysen-6-yl)-2-(5-fluoropyridin-2-yl)-4-oxoazetidin-3-yl 4-methylpiperazine-1-sulfonate], the melting point was 146 to 147 °C. Besides, in the data set with HPAF-II, the IC50 stood at 1180 ± 260 nM. In addition, in data set [1] (setting [3]), the half-maximal inhibitory concentration (IC50) came out at 2.69 nM. Besides, in data set [2] (setting [4]), the IC50 turned out to be 8.43 nM.

With `C[Si](C)(C)CCS(=O)(=O)O[C@@H]1C(=O)N(c2cc3c4ccccc4ccc3c3ccccc23)[C@H]1c1ccc(F)cn1` (racemic) [H, (±)-Trans-N-(chrysen-6-yl)-2-(5-fluoropyridin-2-yl)-4-oxoazetidin-3-yl 2-(trimethylsilyl)ethane-1-sulfonate], the melting point is 210 to 211 °C. For the same compound, the concentration for half-maximal inhibition (IC50) in the data set with HPAF-II was 660 ± 120 nM. The IC50 in the data set with HS 766T was found to be 790 ± 120 nM. Moreover, the IC50 in data set [1] (setting [3]) was found to be 30.4 nM. Moreover, in data set [2] (setting [4]), the IC50 was 48.5 nM.

Regarding `CN(C)S(=O)(=O)O[C@@H]1C(=O)N(c2cc3c4ccccc4ccc3c3ccccc23)[C@H]1c1ccc(F)cn1` (racemic) [J, (±)-Trans-N-(chrysen-6-yl)-2-(5-fluoropyridin-2-yl)-4-oxoazetidin-3-yl dimethylsulfamate], the melting point was in the range of 196 to 198 °C. For the same compound, the IC50 in data set [1] (setting [3]) amounted to 212 nM. The IC50 in data set [2] (setting [4]) stood at 1050 nM.

Consider `O=C=NS(=O)(=O)O[C@@H]1C(=O)N(c2cc3c4ccccc4ccc3c3ccccc23)[C@H]1c1ccc(F)cn1` (racemic) [K, (±)-Trans-N-(chrysen-6-yl)-2-(5-fluoropyridin-2-yl)-4-oxoazetidin-3-yl sulfurisocyanatidate], for which the IC50 in data set [1] (PANC-1, 72 h) amounted to 29.6 nM; in data set [2] it was 416 nM.

For `Cc1ccc(S(=O)(=O)O[C@@H]2C(=O)N(c3cc4c5ccccc5ccc4c4ccccc34)[C@H]2c2ccc(F)cn2)cc1` (racemic) [L, (±)-Trans-N-(chrysen-6-yl)-2-(5-fluoropyridin-2-yl)-4-oxoazetidin-3-yl 4-methylbenzenesulfonate], the values for the IC50 (in data set [1] (setting [3]); in data set [2] (setting [4]); in the data set on PANC-1 tumorspheres) were 3.38 nM, 13.3 nM and 4.57 nM, respectively. Moreover, the “time of maximum cell cycle blockage” value in the data set on PANC-1 cells was determined as 72 h.

Values taken from patent publication US20210214341A1, “SUBSTITUTED PYRIDINYL AZETIDINONE DERIVATIVES FOR USE IN TREATING CANCER AND OTHER DISEASES” (The Board of Regents of the University of Texas System, priority 2018, published 2021).
